Data set [1] in a line: Single intravenous dose pharmacokinetics study in rats (1 mg/kg IV; plasma levels of prodrug and of DMT or 5-MeO-DMT by LC-MS/MS). Particulars: for AUC(0-t) / AUC(0-inf) / clearance / MRT / Vd / half-life: male, Sprague-Dawley, rat, iv, 1 mg/kg; for clearance: CL/CL_F (mL/min/kg); for MRT: MRT (h); for Vd: Vdss (L/kg); for half-life: t1/2 (h).
Data set [2] in a line: Single oral dose pharmacokinetics study in rats (10 mg/kg PO; plasma levels of prodrug and of metabolite DMT or 5-MeO-DMT by LC-MS/MS). Particulars: for AUC(0-t) / Cmax: male, Sprague-Dawley, rat, po, 10 mg/kg.
[3] abbreviates: IV 1 mg/kg, plasma, analyte = dosed compound.
The mark [4] stands for this setting: plasma, AUC0-t (nM.hr), IV 1 mg/kg, analyte = dosed compound.
[5] abbreviates: plasma, AUC0-t (ng.hr/mL), IV 1 mg/kg, analyte = dosed compound.
[6] abbreviates: PO 10 mg/kg, plasma, analyte = dosed compound.
Setting [7] is: plasma, AUC0-t (nM.hr), PO 10 mg/kg, analyte = dosed compound.
Setting [8] is: plasma, AUC0-t (ng.hr/mL), PO 10 mg/kg, analyte = dosed compound.
The mark [9] stands for this setting: plasma, C0/Cmax (nM), PO 10 mg/kg, analyte = dosed compound.
[10] abbreviates: plasma, C0/Cmax (ng/mL), PO 10 mg/kg, analyte = dosed compound, mean/median.
[11] abbreviates: IV 1 mg/kg Plasma (t= 0 to Ihr).
[12] abbreviates: plasma, AUCinf (nM.hr), IV 1 mg/kg, analyte = dosed compound.
The mark [13] stands for this setting: plasma, AUCinf (ng.hr/mL), IV 1 mg/kg, analyte = dosed compound.
The mark [14] stands for this setting: plasma, IV 1 mg/kg Plasma (t= 0 to Ihr).
Setting [15] is: plasma, IV 1 mg/kg, analyte = dosed compound.
The mark [16] stands for this setting: PO 10 mg/kg Plasma (t= 0 to Ihr).

What is called AUC(0-t) is exposure summed from dosing to a finite time, without extrapolation to infinity. One may read the Cmax as the highest concentration seen after dosing. By AUC(0-inf) is commonly meant the area under the concentration-time curve extrapolated to infinity. In general, clearance refers to the volume of plasma or blood freed of the substance per unit of time. What is called MRT is the average time that molecules of a dose stay in the body. What is called Vd is a proportionality between amount in the body and measured concentration, not a real space. The half-life is the time needed for the level to fall by half in the phase considered.

SMILES strings stand for the structures.

With `CCOC(=O)n1cc(CCN(C)C)c2cc(OC)ccc21` [Compound 19, Ethyl 3-[2-(dimethylamino)ethyl]-5-methoxy-indole-1-carboxylate], the “AUC % Back Extrapolation to C0” value in data set [1] (setting [3]) was 59.7%. Besides, the “AUC % Extrapolation to infinity” value in data set [1] (setting [3]) is 0.104%. The “Clast” value was found to be 2.95 ng/mL in data set [1] (setting [3]) and 1.90 ng/mL in data set [2] (setting [6]). The figures for the “tlast” value in data set [1] (setting [3]) and in data set [2] (setting [6]) were 5.50 h and 24.0 h, respectively. Moreover, the AUC(0-t) in data set [1] (setting [4]) turned out to be 14.4 µM·h; in data set [1] (setting [5]), 4170 ng·h/mL; in data set [2] (setting [7]) it was 0.237 µM·h; in data set [2] (setting [8]) it was 68.8 ng·h/mL. The figures for the Cmax in data set [2] (setting [9]) and in data set [2] (setting [10]) were 8.15 nM and 2.37 ng/mL, respectively.
Take `CN(C)CCc1c[nH]c2ccccc12` [DMT, N,N-dimethyltryptamine]: the results for the “AUC % Back Extrapolation to C0” value in data set [1] (setting [11]) and in data set [1] (setting [3]) were 67.2% and 66.4%, respectively. Further, the “AUC % Extrapolation to infinity” value in data set [1] (setting [11]) is on record as 0.502%; in data set [1] (setting [3]), 0.690%; in data set [2] (setting [6]), 42.6%. Also, the “Clast” value in data set [1] (setting [11]) was found to be 5.51 ng/mL; in data set [1] (setting [3]) it was 7.12 ng/mL; in data set [2] (setting [16]), 3.18 ng/mL; in data set [2] (setting [6]) it was 1.52 ng/mL. Also, the “tlast” value stood at 1.00 h in data set [1] (setting [11]), 1.50 h in data set [1] (setting [3]), 1.02 h in data set [2] (setting [16]) and 24.0 h in data set [2] (setting [6]). Besides, the AUC(0-t) in data set [1] (plasma, AUC0-t (nM.hr), IV 1 mg/kg Plasma (t= 0 to Ihr)) was found to be 1.13 µM·h; in data set [1] (setting [4]), 1.14 µM·h; in data set [1] (plasma, AUC0-t (ng.hr/mL), IV 1 mg/kg Plasma (t= 0 to Ihr)), 213 ng·h/mL; in data set [1] (setting [5]) it was 214 ng·h/mL; in data set [2] (plasma, AUC0-t (nM.hr), PO 10 mg/kg Plasma (t= 0 to Ihr)), 0.0239 µM·h; in data set [2] (setting [7]), 0.314 µM·h. Moreover, the AUC(0-t) in data set [2] (plasma, AUC0-t (ng.hr/mL), PO 10 mg/kg Plasma (t= 0 to Ihr)) was found to be 4.51 ng·h/mL; in data set [2] (setting [8]), 59.1 ng·h/mL. The AUC(0-inf) stood at 1.14 µM·h in data set [1] (plasma, AUCinf (nM.hr), IV 1 mg/kg Plasma (t= 0 to Ihr)); 1.15 µM·h in data set [1] (setting [12]); 214 ng·h/mL in data set [1] (plasma, AUCinf (ng.hr/mL), IV 1 mg/kg Plasma (t= 0 to Ihr)); 216 ng·h/mL in data set [1] (setting [13]). Further, the clearance in data set [1] (setting [14]) is 87.1 mL/min/kg; in data set [1] (setting [15]), 85.8 mL/min/kg. Besides, the results for the MRT in data set [1] (setting [14]) and in data set [1] (setting [15]) were 7.92 min and 9.12 min, respectively. Also, the Vd was determined as 0.645 L/kg in data set [1] (setting [14]) and 0.774 L/kg in data set [1] (setting [15]). Also, the figures for the half-life in data set [1] (setting [14]) and in data set [1] (setting [15]) were 8.4 min and 8.76 min, respectively. Also, in data set [2] (PO 10 mg/kg Plasma (t= 0 to Ihr) vs IV 1 mg/kg), the “Bioavailability (%) Using AUC0-t” value is 0.212%. In data set [2] (setting [6]), the “CL/CL_F” value is listed as 1639 mL/min/kg. Besides, the maximum concentration (Cmax) in data set [2] (plasma, C0/Cmax (nM), PO 10 mg/kg Plasma (t= 0 to Ihr)) turned out to be 47.1 nM; in data set [2] (setting [9]), 69.4 nM; in data set [2] (plasma, C0/Cmax (ng/mL), PO 10 mg/kg Plasma (t= 0 to Ihr)) it was 8.87 ng/mL; in data set [2] (setting [10]), 13.1 ng/mL.
Turning to `CCOC(=O)n1cc(CCN(C)C)c2ccccc21` [Compound 20, Ethyl 3-[2-(dimethylamino)ethyl]indole-1-carboxylate], in data set [1] (setting [3]), the “AUC % Back Extrapolation to C0” value is recorded as 17.5%, the “AUC % Extrapolation to infinity” value is 1.073%, the “Clast” value is on record as 3.26 ng/mL and the “tlast” value is on record as 4.00 h. Further, in data set [1] (setting [4]), the AUC(0-t) is 1.07 µM·h. In addition, the AUC(0-t) in data set [1] (setting [5]) was 279 ng·h/mL. For the same compound, in data set [1] (setting [12]), the total exposure AUC(0-inf) came to 1.08 µM·h. In data set [1] (setting [13]), the AUC(0-inf) turned out to be 282 ng·h/mL. For the same compound, in data set [1] (setting [15]), the clearance was 67.9 mL/min/kg, the MRT was 48.6 min, the volume of distribution (Vd) was 3.53 L/kg and the half-life is 36.8 min. In addition, in data set [2] (setting [6]), the “Clast” value is given as 3.01 ng/mL and the “tlast” value is on record as 1.00 h. Also, in data set [2] (setting [7]), the AUC(0-t) came to 0.0184 µM·h. Also, the exposure AUC(0-t) in data set [2] (setting [8]) was 4.78 ng·h/mL. In data set [2] (setting [9]), the Cmax turned out to be 44.3 nM. Further, the Cmax in data set [2] (setting [10]) was 11.5 ng/mL.
Turning to `COc1ccc2c(c1)c(CCN(C)C)cn2P(=O)(OC(C)C)OC(C)C` [Diisopropylphosphonate 5-MeO-DMT Prodrug, 2-(1-diisopropoxyphosphoryl-5-methoxy-indol-3-yl)-N,N-dimethyl-ethanamine], in data set [1] (setting [3]), the “AUC % Back Extrapolation to C0” value is 7.68%, the “AUC % Extrapolation to infinity” value is listed as 7.01%, the “Clast” value stood at 5.32 ng/mL and the “tlast” value came to 4.00 h. Further, the exposure AUC(0-t) in data set [1] (setting [4]) turned out to be 0.273 µM·h. For the same compound, the AUC(0-t) in data set [1] (setting [5]) is 104 ng·h/mL. Besides, in data set [1] (setting [12]), the AUC(0-inf) amounted to 0.295 µM·h. Further, the AUC(0-inf) in data set [1] (setting [13]) turned out to be 113 ng·h/mL. In addition, in data set [1] (setting [15]), the clearance was determined as 150 mL/min/kg, the MRT came out at 83.4 min, the Vd came out at 12.2 L/kg and the half-life is 60.6 min. For the same compound, the “Bioavailability (%) Using AUCinf” value in data set [2] (PO 10 mg/kg vs IV 1 mg/kg, plasma, analyte = dosed compound) was determined as 33.8%. In data set [2] (setting [6]), the “AUC % Extrapolation to infinity” value was 7.77%, the “CL/CL_F” value is recorded as 450 mL/min/kg, the “Clast” value came to 2.84 ng/mL and the “tlast” value was 24.1 h. In addition, in data set [2] (setting [7]), the AUC(0-t) was found to be 0.921 µM·h. The AUC(0-t) in data set [2] (setting [8]) was found to be 352 ng·h/mL. Moreover, the Cmax in data set [2] (setting [9]) worked out at 210 nM. Besides, the Cmax in data set [2] (setting [10]) worked out at 80.4 ng/mL.
For the compound `COc1ccc2[nH]cc(CCN(C)C)c2c1` [Compound 5-MeO-DMT, 5-methoxy-N,N-dimethyltryptamine, reference compound], in data set [1] (setting [3]), the “AUC % Back Extrapolation to C0” value is 26.8%, the “AUC % Extrapolation to infinity” value is reported as 0.204%, the “Clast” value came to 1.68 ng/mL and the “tlast” value is 5.50 h. Besides, the AUC(0-t) in data set [1] (setting [4]) came to 4.95 µM·h. In data set [1] (setting [5]), the AUC(0-t) was determined as 1080 ng·h/mL. In addition, in data set [1] (setting [12]), the AUC(0-inf) came out at 4.95 µM·h. For the same compound, the AUC(0-inf) in data set [1] (setting [13]) is 1080 ng·h/mL. In data set [1] (setting [15]), the clearance worked out at 24.6 mL/min/kg, the MRT was 37.4 min, the Vd worked out at 0.818 L/kg and the half-life is 30.6 min. In addition, in data set [2] (setting [6]), the “Clast” value came out at 1.95 ng/mL and the “tlast” value stood at 2.00 h. The Cmax in data set [2] (setting [9]) was found to be 13.9 nM. Besides, the Cmax in data set [2] (setting [10]) came to 3.03 ng/mL.

Source of the values: patent US11866408B2, “N,N-dimethyltryptamine and related psychedelics and uses thereof” (Terran Biosciences Inc., priority 2021, dated 2024).
